Assay results: patent US8455537B2, “Estrogen receptor modulators and uses thereof” (University of Medicine and Dentistry of New Jersey, priority 2006, dated 2013)

What was measured:
[1] = target: T1, ERα (Homo sapiens, UniProt P03372); assay: NR peptide ERα ELISA kit, percentage of ER activation; type: biochemical; settings: 25 μM sample; normalized to vehicle control (DMSO) = 100%; over 100% agonist, below 100% antagonist; MCF-7 nuclear extract as ER source
T1 construct: presence of both ER and PR in the MCF-7 nuclear extract; (kit); host or cells: MCF-7 nuclear extract
T1 sequence (P03372 1-595): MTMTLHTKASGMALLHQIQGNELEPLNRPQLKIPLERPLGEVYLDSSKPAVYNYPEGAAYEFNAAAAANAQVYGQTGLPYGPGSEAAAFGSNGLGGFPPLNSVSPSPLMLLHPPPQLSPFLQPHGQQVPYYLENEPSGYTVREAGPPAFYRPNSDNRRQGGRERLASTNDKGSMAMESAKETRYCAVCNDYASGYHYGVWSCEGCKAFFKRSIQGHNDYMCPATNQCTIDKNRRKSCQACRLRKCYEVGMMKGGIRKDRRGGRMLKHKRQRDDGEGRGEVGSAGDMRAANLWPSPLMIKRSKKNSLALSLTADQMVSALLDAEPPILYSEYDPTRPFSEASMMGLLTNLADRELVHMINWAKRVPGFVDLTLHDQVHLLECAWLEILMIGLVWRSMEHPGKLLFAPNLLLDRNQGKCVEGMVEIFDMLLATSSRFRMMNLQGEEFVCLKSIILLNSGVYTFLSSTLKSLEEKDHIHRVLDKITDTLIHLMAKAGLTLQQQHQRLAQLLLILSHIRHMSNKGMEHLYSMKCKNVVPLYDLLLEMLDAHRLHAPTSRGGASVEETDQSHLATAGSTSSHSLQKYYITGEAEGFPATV
Text: Relative units of light intensity for each test compound were normalized to the vehicle control (DMSO) and then expressed in percentage of ER activation. […] The data reported here represent results of three independent determinations in duplicate. Error bars represent the standard deviation of the three determinations.

[2] = target: T2, estrogen receptor alpha (ERα) (Homo sapiens, UniProt P03372); assay: Gel filtration displacement assay, competitive binding with 3H-estradiol; settings: test compound 10 μM; 25 nM 3H-estradiol; 10 ng purified full-length ERα; no cold ligand = 100%; lower = stronger binding
T2 construct: 10 ng of purified full-length ERα (Active Motif, Carlsbad, Calif.); purchased Active Motif, Carlsbad, Calif
T2 sequence (P03372 1-595): T1 sequence (P03372 1-595)
Experimental: A gel filtration displacement assay for estrogen receptor alpha (ERα) was employed to assess competitive binding by ER antagonists among the test compounds in 10 μM. ER binding assays were conducted in duplicate in 50 mM Tris-HCl, pH7.5, 1 mM EDTA, 20% Glycerol and 1 mM DTT buffer. Radioligands that were used include [6, 7-^3H] estradiol (specific activity 44 Ci/mmol, Amersham Biosciences).
Following 1-hour incubation, assays were terminated by filtration through Whatman GF/B filters. […] Counts were normalized to the negative controls (no cold ligand) as the percentage of bound radiolabeled-estradiol remaining after separating bound radioligand from free radioligand. The negative controls were taken as 100% bound radioligand remaining. […] Results are reported as the average values of three independent experiments in duplicate. Error bars represent standard deviation of the three determinations (FIG. 2).

SMILES | percentage of ER activation [1] | percentage of bound radiolabeled-estradiol remaining [2]
C[C@]12CC[C@@H]3c4ccc(O)c(O)c4CC[C@H]3[C@@H]1CC[C@@H]2O [4-hydroxy estradiol] | 196.3% | –
CCC(=O)C1=C(O)CCC(c2cccc(Oc3ccccc3)c2)C1=O (stereo not shown) [Compound A] | 53.1% | 65.9%
O=C1c2ccccc2C(=O)N1CN(C(=O)c1ccccc1)c1ccc(O)cc1 [Compound B] | 69% | 89.8%
CC#C[C@]1(O)CC[C@H]2[C@@H]3CCC4=CC(=O)CCC4=C3[C@@H](c3ccc(N(C)C)cc3)C[C@@]21C [mifepristone, reference compound] | 51.7% | > 100%
